Reference: the NIST ThermoML archive (doi:10.1016/j.jct.2014.05.019)

Test: xn = mol fraction of the nth substance listed
Conditions: 100 kPa, Liquid; for electrical conductivity: Alternating current cell with electrodes; for viscosity: Falling or rolling sphere viscometry; for mass density: Vibrating tube method

NC(CO)C(=O)[O-].[Na+] (stereo not drawn) [sodium DL-serine] + O
Conditions | electrical conductivity [S/m] | mass density [kg/m3] | viscosity [mPa·s]
303.15 K, x1 = 0.009 | 2.7 | 1028.3 | 0.9965
303.15 K, x1 = 0.018 | 4.28 | 1060.1 | 1.221
303.15 K, x1 = 0.028 | 5.19 | 1090.9 | 1.552
303.15 K, x1 = 0.037 | 5.57 | 1121.1 | 1.967
303.15 K, x1 = 0.048 | 5.59 | 1150.7 | 2.599
303.15 K, x1 = 0.058 | 5.3 | 1181.9 | –
303.15 K, x1 = 0.059 | – | – | 3.496
308.15 K, x1 = 0.009 | 2.98 | 1026.5 | 0.9018
308.15 K, x1 = 0.018 | 4.73 | 1058.1 | 1.097
308.15 K, x1 = 0.028 | 5.74 | 1088.8 | 1.377
308.15 K, x1 = 0.037 | 6.2 | 1118.7 | 1.739
308.15 K, x1 = 0.048 | 6.27 | 1148.2 | 2.28
308.15 K, x1 = 0.058 | 5.99 | 1179.2 | –
308.15 K, x1 = 0.059 | – | – | 3.027
313.15 K, x1 = 0.009 | 3.27 | 1024.6 | 0.8058
313.15 K, x1 = 0.018 | 5.2 | 1055.9 | 0.9981
313.15 K, x1 = 0.028 | 6.3 | 1086.4 | 1.236
313.15 K, x1 = 0.037 | 6.82 | 1116.3 | 1.563
313.15 K, x1 = 0.048 | 6.96 | 1145.5 | 2.007
313.15 K, x1 = 0.058 | 6.69 | 1176.5 | –
313.15 K, x1 = 0.059 | – | – | 2.661
318.15 K, x1 = 0.009 | 3.57 | 1022.5 | 0.7337
318.15 K, x1 = 0.018 | 5.64 | 1053.6 | 0.8941
318.15 K, x1 = 0.028 | 6.87 | 1084 | 1.116
318.15 K, x1 = 0.037 | 7.49 | 1113.7 | 1.394
318.15 K, x1 = 0.048 | 7.66 | 1142.8 | 1.792
318.15 K, x1 = 0.058 | 7.44 | 1173.7 | –
318.15 K, x1 = 0.059 | – | – | 2.351
323.15 K, x1 = 0.009 | 3.87 | 1020.2 | 0.6788
323.15 K, x1 = 0.018 | 6.12 | 1051.2 | 0.8127
323.15 K, x1 = 0.028 | 7.46 | 1081.5 | 1.012
323.15 K, x1 = 0.037 | 8.17 | 1111.1 | 1.26
323.15 K, x1 = 0.048 | 8.38 | 1140.1 | 1.608
323.15 K, x1 = 0.058 | 8.19 | 1170.8 | –
323.15 K, x1 = 0.059 | – | – | 2.091
328.15 K, x1 = 0.009 | 4.17 | 1017.8 | 0.6217
328.15 K, x1 = 0.018 | 6.59 | 1048.7 | 0.7448
328.15 K, x1 = 0.028 | 8.05 | 1078.9 | 0.9186
328.15 K, x1 = 0.037 | 8.86 | 1108.3 | 1.149
328.15 K, x1 = 0.048 | 9.12 | 1137.3 | 1.452
328.15 K, x1 = 0.058 | 8.97 | 1167.9 | –
328.15 K, x1 = 0.059 | – | – | 1.872
333.15 K, x1 = 0.009 | 4.48 | 1015.3 | 0.575
333.15 K, x1 = 0.018 | 7.06 | 1046 | 0.692
333.15 K, x1 = 0.028 | 8.64 | 1076.1 | 0.8431
333.15 K, x1 = 0.037 | 9.52 | 1105.5 | 1.055
333.15 K, x1 = 0.048 | 9.82 | 1134.4 | 1.321
333.15 K, x1 = 0.058 | 9.74 | 1164.9 | –
333.15 K, x1 = 0.059 | – | – | 1.709
338.15 K, x1 = 0.009 | 4.8 | 1012.7 | 0.537
338.15 K, x1 = 0.018 | 7.53 | 1043.2 | 0.6342
338.15 K, x1 = 0.028 | 9.24 | 1073.3 | 0.7788
338.15 K, x1 = 0.037 | 10.2 | 1102.6 | 0.9608
338.15 K, x1 = 0.048 | 10.6 | 1131.4 | 1.206
338.15 K, x1 = 0.058 | 10.5 | 1161.8 | –
338.15 K, x1 = 0.059 | – | – | 1.531
343.15 K, x1 = 0.009 | 5.1 | 1009.9 | 0.4983
343.15 K, x1 = 0.018 | 8.01 | 1040.4 | 0.5945
343.15 K, x1 = 0.028 | 9.84 | 1070.4 | 0.72
343.15 K, x1 = 0.037 | 10.8 | 1099.6 | 0.8858
343.15 K, x1 = 0.048 | 11.3 | 1128.4 | 1.108
343.15 K, x1 = 0.058 | 11.3 | 1158.7 | –
343.15 K, x1 = 0.059 | – | – | 1.399
